Where two headings read alike, the source gives them in different places.

The nature of series [1]: Compatibility of Levetiracetam with excipients (impurity profile). In kind it is physicochemical. How it is done:
Levetiracetam was tested for its compatibility with several pharmaceutically acceptable excipients comprising the above mentioned properties.

For series [2] the following is noted: cited from earlier work.
The conditions of series [3]: cited from earlier work. The source holds these as a separate data set.

`CC[C@@H](C(N)=O)N1CCCC1=O` [Levetiracetam, S-enantiomer of α-ethyl-2-oxo-1-pyrrolidine acetamide]: the “impurity profile of the active ingredient with excipient” value in series [1] (with PVP) and in series [1] (with sodium starch glycolate (Primojel)) was “not acceptable” in each case. Further, the bioavailability in series [2] is 100%. The protein binding result in series [2] is “lack of protein binding”. Also, the solubility result is “sparingly soluble” in series [3] (in acetonitrile); “freely soluble” in series [3] (in chloroform); “freely soluble” in series [3] (in methanol); “practically insoluble” in series [3] (in n-hexane); “very soluble” in series [3] (in water).

For orientation: bioavailability means the share of a dose that reaches the circulation, judged against a reference dose that is usually intravenous.

Source of the values: patent publication US8187635B2, “Pharmaceutical composition containing a pyrrolidone anticonvulsant agent and method for the preparation thereof” (Pharmathen S.A, priority 2007, dated 2012).
